Measured values as given in PMC9393241, “Design, Synthesis, and Activity Assays of Cyclin-Dependent Kinase 1 Inhibitors With Flavone Scaffolds” (Frontiers in Chemistry, 2022).

Columns and labels:
CDK1/cyclin B1 = target: T1, CDK1/cyclin B1 (Homo sapiens, UniProt P06493); assay: In vitro anti-CDK1/cyclin B1 kinase assay (Kinase-Glo luminescence); assay type: biochemical; conditions: for inhibition at 20 µM: test compounds at 20 μM, read-out: Inhibition rates (%) CDK1; for Selectivity: CDK1 compared with CDK4 (CDK4 IC50 / CDK1 IC50)
T1 construct: purchased
T1 sequence (P06493 whole entry): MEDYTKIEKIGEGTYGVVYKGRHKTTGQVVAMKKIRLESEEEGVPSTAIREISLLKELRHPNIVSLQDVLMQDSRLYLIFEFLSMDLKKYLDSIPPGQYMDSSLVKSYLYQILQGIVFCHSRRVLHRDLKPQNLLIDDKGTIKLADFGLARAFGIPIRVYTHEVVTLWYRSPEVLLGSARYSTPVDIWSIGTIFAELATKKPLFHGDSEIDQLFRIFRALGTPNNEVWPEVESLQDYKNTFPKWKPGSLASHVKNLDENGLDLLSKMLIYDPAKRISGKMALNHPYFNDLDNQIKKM
T1 sequence (P14635 whole entry partner): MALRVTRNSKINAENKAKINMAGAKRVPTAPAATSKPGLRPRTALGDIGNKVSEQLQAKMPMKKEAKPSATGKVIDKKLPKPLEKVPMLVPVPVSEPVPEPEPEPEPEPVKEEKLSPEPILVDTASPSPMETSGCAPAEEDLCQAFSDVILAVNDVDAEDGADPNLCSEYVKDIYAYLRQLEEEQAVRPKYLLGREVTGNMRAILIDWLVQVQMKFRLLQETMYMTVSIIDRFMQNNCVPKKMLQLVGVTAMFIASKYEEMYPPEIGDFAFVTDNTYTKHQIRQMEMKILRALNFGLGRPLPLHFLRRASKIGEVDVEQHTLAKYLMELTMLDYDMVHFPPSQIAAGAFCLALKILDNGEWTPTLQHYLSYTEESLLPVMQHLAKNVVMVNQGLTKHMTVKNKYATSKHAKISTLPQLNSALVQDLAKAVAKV
Experimental: (§1) In vitro anti-CDK1/cyclin B1 and CDK4/cyclin D3 assays were performed as described by the manufacturer. All test compounds and controls were dissolved in dimethyl sulfoxide (DMSO) to prepare 50 μM stock solutions. The stock solutions were diluted by double-distilled water and buffer to 40, 30, 20, and 10 μM working concentrations and stored at −20°C. Buffer, ATP, CDK substrate […], and distilled water were mixed, and then 25 μl of the mixture was added to a 96-well plate. Five microliters of 20 μM test compounds were sequentially added. CDK1/cyclin B1 was diluted to 1 ng/μl, and CDK4/cyclin D3 was diluted to 10 ng/μl using a buffer. Twenty microliters of the kinase solutions were incubated with the test compounds at 30°C for 45 min for CDK1/cyclin B1 and for 60 min for CDK4/cyclin D3. Finally, 50 μl of Kinase-Glo Max reagent was added to each well. The 96-well plate was covered with aluminum foil and incubated at room temperature for 15 min. Luminescence of the test compounds was measured with a microplate reader.

CDK4/cyclin D3 = target: T2, CDK4/cyclin D3 (Homo sapiens, UniProt P11802); assay: In vitro anti-CDK4/cyclin D3 kinase assay (Kinase-Glo luminescence); assay type: biochemical; conditions: for inhibition at 20 µM: test compounds at 20 μM, read-out: Inhibition rates (%) CDK4
T2 construct: purchased
T2 sequence (P11802 whole entry): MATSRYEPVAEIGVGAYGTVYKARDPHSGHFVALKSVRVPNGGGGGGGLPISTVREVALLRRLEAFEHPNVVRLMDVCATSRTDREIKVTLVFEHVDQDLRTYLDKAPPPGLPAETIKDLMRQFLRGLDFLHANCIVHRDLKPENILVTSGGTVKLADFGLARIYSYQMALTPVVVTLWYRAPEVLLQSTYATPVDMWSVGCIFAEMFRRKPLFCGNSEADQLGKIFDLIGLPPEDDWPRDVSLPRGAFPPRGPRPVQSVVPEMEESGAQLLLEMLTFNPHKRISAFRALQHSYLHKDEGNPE
T2 sequence (P30281 whole entry partner): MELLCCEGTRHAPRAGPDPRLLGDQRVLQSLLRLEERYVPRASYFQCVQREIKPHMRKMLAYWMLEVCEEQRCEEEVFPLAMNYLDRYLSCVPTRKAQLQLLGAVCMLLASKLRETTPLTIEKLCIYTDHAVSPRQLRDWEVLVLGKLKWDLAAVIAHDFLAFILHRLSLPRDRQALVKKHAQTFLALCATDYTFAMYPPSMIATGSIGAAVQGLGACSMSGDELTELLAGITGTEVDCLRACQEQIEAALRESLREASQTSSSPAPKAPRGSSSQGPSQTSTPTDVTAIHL
Experimental: as §1

SMILES	inhibition at 20 µM (CDK1/cyclin B1) [%]	inhibition at 20 µM (CDK4/cyclin D3) [%]	melting point [°C]	IC50 (CDK1/cyclin B1) [µM]	Selectivity (CDK1/cyclin B1)	IC50 (CDK4/cyclin D3) [µM]
O=c1cc(-c2ccccc2)oc2cc(OCCCCBr)cc(O)c12 [Compound 7d, 7-(4-Bromobutoxy)-5-hydroxy-2-phenyl-4H-chromen-4-one]	19.74 ± 0.11	1.83 ± 0.06	162.6 to 163.6			
CN1CCN(Cc2c(O)cc3oc(-c4ccccc4)cc(=O)c3c2O)CC1 [Compound 4b, 5,7-Dihydroxy-6-((4-methylpiperazin-1-yl)methyl)-2-phenyl-4H-chromen-4-one]	28.14 ± 0.12		179.5 to 180.1			
O=c1cc(-c2ccccc2)oc2c(CN3CC=CC3)c(O)c(CN3CC=CC3)c(O)c12 [Compound 5b, 6,8-Bis((2H-pyrrol-1(5H)-yl)methyl)-5,7-dihydroxy-2-phenyl-4H-chromen-4-one]	28.66 ± 0.11		172.7 to 174.3			
CCCN(CCC)Cc1c(OCCCCBr)c(O)c(O)c2c(=O)cc(-c3ccccc3)oc12 [Compound 3b, 7-(4-Bromobutoxy)-8-((dipropylamino)methyl)-5,6-dihydroxy-2-phenyl-4H-chromen-4-one]	25.33 ± 0.11	6.01 ± 0.07	216.2 to 221.8			
COc1ccc(-c2cc(=O)c3c(O)cc(OCCCCBr)cc3o2)cc1 [Compound 12d, 7-(4-Bromobutoxy)-5-hydroxy-2-(4-methoxyphenyl)-4H-chromen-4-one]	36.91 ± 0.08	3.47 ± 0.04	178.9 to 179.8	51.4 ± 1.56		
O=c1cc(-c2ccccc2)oc2cc(O)c(O)c(O)c12 [baicalein, reference compound]	18.85 ± 0.09			62.7 ± 1.52	5.65	354 ± 5.67
CN(C)Cc1c2c(c(O)c3c(=O)cc(-c4ccccc4)oc13)OCCCCO2 [Compound 2c, 7-((Dimethylamino)methyl)-12-hydroxy-9-phenyl-2,3,4,5-tetrahydro-[1,4]dioxocino[2,3-g]chromen-11-one]	29.4 ± 0.09	10.96 ± 0.09	208.5 to 210.6			
O=c1cc(-c2ccccc2)oc2c(CN3CCSCC3)c(O)c(O)c(O)c12 [Compound 1b]	31.71 ± 0.08	0.09 ± 0.03				
O=c1cc(-c2ccccc2)oc2c(CN3CCOCC3)c(O)cc(O)c12 [Compound 6b, 5,7-Dihydroxy-8-(morpholinomethyl)-2-phenyl-4H-chromen-4-one]	34.47 ± 0.12	9.36 ± 0.09	217.6 to 219.5			
O=c1cc(-c2ccccc2)oc2c(CN3CCCC3)c(O)c(CN3CCCC3)c(O)c12 [Compound 5a, 5,7-Dihydroxy-2-phenyl-6,8-bis(pyrrolidin-1-ylmethyl)-4H-chromen-4-one]	29 ± 0.12	7.22 ± 0.08	194.9 to 196.6			
CN1CCN(Cc2c(O)c(CN3CCN(C)CC3)c3oc(-c4ccccc4)cc(=O)c3c2O)CC1 [Compound 5e, 5,7-Dihydroxy-6,8-bis((4-methylpiperazin-1-yl)methyl)-2-phenyl-4H-chromen-4-one]	26.75 ± 0.1					
CN(C)Cc1c(O)cc(O)c2c(=O)cc(-c3ccccc3)oc12 [Compound 6d, 8-((Dimethylamino)methyl)-5,7-dihydroxy-2-phenyl-4H-chromen-4-one]	31.24 ± 0.08	7.46 ± 0.06	241.9 to 242.3			
O=c1cc(-c2ccccc2)oc2c(CN3CCSCC3)c(O)c(CN3CCSCC3)c(O)c12 [Compound 5d, 5,7-Dihydroxy-2-phenyl-6,8-bis(thiomorpholinomethyl)-4H-chromen-4-one]	30.39 ± 0.09		211 to 212.4			
CN(C)Cc1c(O)c(O)c(O)c2c(=O)cc(-c3ccccc3)oc12 [Compound 1c]	29.28 ± 0.11					
O=c1cc(-c2ccccc2)oc2cc(O)c(CN3CCCC3)c(O)c12 [Compound 4a, 5,7-Dihydroxy-2-phenyl-6-(pyrrolidin-1-ylmethyl)-4H-chromen-4-one]	31.72 ± 0.1		195.2 to 196.3			
O=c1cc(-c2ccccc2)oc2c(CN3CCSCC3)c(O)cc(O)c12 [Compound 6c, 5,7-Dihydroxy-2-phenyl-8-(thiomorpholinomethyl)-4H-chromen-4-one]	34.19 ± 0.1	9.87 ± 0.09	218.3 to 219.5			
O=c1cc(-c2ccccc2)oc2c(CN3CCOCC3)c(OCc3ccccc3)c(O)c(O)c12 [Compound 3a, 7-(Benzyloxy)-5,6-dihydroxy-8-(morpholinomethyl)-2-phenyl-4H-chromen-4-one]	38.11 ± 0.09	2.73 ± 0.06	218.3 to 219.8	42.2 ± 1.62	12.88	543.8 ± 4.83
O=c1cc(-c2ccccc2)oc2c(CN3CCSCC3)c3c(c(O)c12)OCCCCO3 [Compound 2b, 12-Hydroxy-9-phenyl-7-(thiomorpholinomethyl)-2,3,4,5-tetrahydro-[1,4]dioxocino[2,3-g]chromen-11-one]	27.19 ± 0.07	10.18 ± 0.08	202.3 to 203.6			
O=c1cc(-c2ccccc2)oc2c(CN3CCOCC3)c(O)c(O)c(O)c12 [Compound 1a]	25.48 ± 0.11	6.71 ± 0.07				
CCCN(CCC)Cc1c(O)c(O)c(O)c2c(=O)cc(-c3ccccc3)oc12 [Compound 1d]	31.11 ± 0.1	2.47 ± 0.08				

More lines, now with the values ahead:

inhibition at 20 µM (CDK1/cyclin B1) [%]	inhibition at 20 µM (CDK4/cyclin D3) [%]	melting point [°C]	IC50 (CDK1/cyclin B1) [µM]	Selectivity (CDK1/cyclin B1)	IC50 (CDK4/cyclin D3) [µM]	SMILES
32.38 ± 0.11	6 ± 0.04	181.6 to 182.7				COc1ccc(-c2cc(=O)c3c(O)cc(OCc4ccccc4)cc3o2)cc1 [Compound 12a, 7-(Benzyloxy)-5-hydroxy-2-(4-methoxyphenyl)-4H-chromen-4-one]
34.64 ± 0.11	10.44 ± 0.07		31.9 ± 1.08	6.45	206 ± 3.61	COc1ccc(-c2cc(=O)c3c(O)cc(O)cc3o2)cc1 [acacetin, reference compound]
26.12 ± 0.1		211 to 213.4				COc1ccc(-c2cc(=O)c3c(O)cc(O)c(CN4CCSCC4)c3o2)cc1 [Compound 11a, 5,7-Bihydroxy-2-(4-methoxyphenyl)-8-(thiomorpholinomethyl)-4H-chromen-4-one]
31.04 ± 0.1		187 to 188.6				COc1cc2oc(-c3ccccc3)cc(=O)c2c(O)c1CN1CCOCC1 [Compound 8a, 5-Hydroxy-7-methoxy-6-(morpholinomethyl)-2-phenyl-4H-chromen-4-one]
29.54 ± 0.11		214.2 to 215.5				COc1ccc(-c2cc(=O)c3c(O)c(CN4CCSCC4)c(O)c(CN4CCSCC4)c3o2)cc1 [Compound 10b, 5,7-Dihydroxy-2-(4-methoxyphenyl)-6,8-bis(thiomorpholinomethyl)-4H-chromen-4-one]
35.53 ± 0.08	2.73 ± 0.08	191.6 to 193.7				COc1ccc(-c2cc(=O)c3c(O)c(CN(C)C)c(O)c(CN(C)C)c3o2)cc1 [Compound 10d, 6,8-Bis((dimethylamino)methyl)-5,7-dihydroxy-2-(4-methoxyphenyl)-4H-chromen-4-one]
32.4 ± 0.11	7.93 ± 0.08					COc1ccc(-c2cc(=O)c3c(O)cc(OC)cc3o2)cc1 [Compound 12b, 5-Hydroxy-7-methoxy-2-(4-methoxyphenyl)-4H-chromen-4-one]
27.7 ± 0.12	8.57 ± 0.09	161.8 to 161.9				COc1ccc(-c2cc(=O)c3c(O)c(CN4CCN(C)CC4)c(O)c(CN4CCN(C)CC4)c3o2)cc1 [Compound 10c, 5,7-Dihydroxy-2-(4-methoxyphenyl)-6,8-bis((4-methylpiperazin-1-yl)methyl)-4H-chromen-4-one]
39.51 ± 0.06			55 ± 1.45	2.37	130 ± 2.84	O=c1cc(-c2ccccc2)oc2cc(OCc3ccccc3)cc(O)c12 [Compound 7a, 7-(Benzyloxy)-5-hydroxy-2-phenyl-4H-chromen-4-one]
24.07 ± 0.1	4.68 ± 0.07	207.1 to 207.3				COc1ccc(-c2cc(=O)c3c(O)c(CN4CCCC4)c(O)c(CN4CCCC4)c3o2)cc1 [Compound 10a, 5,7-Dihydroxy-2-(4-methoxyphenyl)-6,8-bis(pyrrolidin-1-ylmethyl)-4H-chromen-4-one]
32.77 ± 0.09			36.6 ± 1.23	6.13	225 ± 3.46	O=c1cc(-c2ccccc2)oc2cc(O)cc(O)c12 [chrysin, reference compound]
21.27 ± 0.09	1.76 ± 0.05					COc1cc(O)c2c(=O)cc(-c3ccccc3)oc2c1 [Compound 7b, 5-Hydroxy-7-methoxy-2-phenyl-4H-chromen-4-one]
22.74 ± 0.11		169.3 to 170.1				O=c1cc(-c2ccccc2)oc2cc(OCCBr)cc(O)c12 [Compound 7c, 7-(2-Bromoethoxy)-5-hydroxy-2-phenyl-4H-chromen-4-one]
20.47 ± 0.08		210.3 to 212				COc1cc2oc(-c3ccccc3)cc(=O)c2c(O)c1CN1CCSCC1 [Compound 8b, 5-Hydroxy-7-methoxy-2-phenyl-6-(thiomorpholinomethyl)-4H-chromen-4-one]
